One test deals with T1, rat TRPV1 (Rattus norvegicus, UniProt O35433).
T1 construct: expressed in transfected cells; host or cells: HEK293
Put plainly: Assay for inhibitory activity against VR1 patch clamp activity (capsaicin current, inside-out patch). The format is cell-based. Conditions: 1 μM compound with 10 μM capsaicin; rat TRPV1-transfected HEK293, inside-out patch; relative to capsaicin current before compound. On the procedure: Each of the compounds synthesized in the examples were dissolved in dimethyl sulfoxide (DMSO) at a concentration of 10 mM. For use in the assay for inhibitory activity against patch clamp activity, the solutions were diluted to a concentration of 1 μM with the same physiological saline as in the pipette solution of Table 1, below.
2) Assay for Inhibitory Activity Against VR1 Patch Clamp Activity
In this experiment, changes in VR1 activity were recorded in current using an electrophysiological technique.
For use in this experiment, a rat TRPV1 cDNA was transfected into a subcultured HEK293 strain with the aid of lipofectamin.
The rat TRPV1 gene-transfected HEK293 cells were detached from the cell culture dishes with trypsin and distributed on a patch clamp recording chamber.
A cover glass slip on the bottom of the patch clamp recording chamber was treated for 15 min or longer with a […] poly-L-lysine solution so that the HEK cells would readily adhere thereto. Cellular membranes were ruptured at room temperature (˜25° C.) from randomly selected HEK cells to perform an inside-out patch clamp technique. 10 μM of capsaicin was fed into the chamber (cytoplasmic side) to activate a capsaicin current through the VR1. When the capsaicin current reached a stable stage, each compound was added along with 10 μM of capsaicin to record the inhibitory activity of the compounds with regard to the current. The inhibition was expressed as percentages.
Detected current was amplified using a Digidata 1200B A/D converter and an Axopatch 1D amplifier (Axon instruments Inc.), and the data were recorded and analyzed with the aid of a computer. The inhibitory activity of each compound was expressed as a percentage relative to the capsaicin current immediately before the administration of each compound.

Test [1] concerns ICR male mice (PBQ-induced writhing). As to the kind of experiment: PBQ-induced writhing test for analgesic effect. Type of test: in vivo. Conditions: Mus musculus, 1 h, 20 mg/kg oral, one hour before intraabdominal PBQ (0.02%), read-out: % Inhibition (decrease in number of writhes compared to control). On the procedure: A PBQ-induced writhing test was conducted in mice to assay for the analgesic effect of the novel compounds. Five-week-old ICR male mice were treated with PBQ (phenyl-p-quinone, 0.02%). A suspension of 20 mg of test material in 10 mL of physiological saline was used per kg of weight of mice. Test materials in combination with a carrier were orally administered one hour before the intraabdominal injection of PBQ in a dose of 10 mL per kg weight. From 5 min after the injection, individual mice in each test group were measured for numbers of writhes at regular intervals of 10 min. Analgesic effects of test compounds were expressed as percentages of the decrease in number of writhes compared to a control. [% Inhibition=(Control administered with carrier alone−Group administered with test material)/control administered with carrier alone×100]
(In general: An intraperitoneal irritant provokes the stretching counted in writhing tests.)

A further test concerns the target T2, human vanilloid-1 (hVR1) (Homo sapiens, UniProt Q8NER1).
T2 construct: expressed in transfected cells; host or cells: HEK293 Tet-on (hVR1-HEK293), doxycycline-induced
Put plainly: Calcium influx of vanilloid receptor in hVR1-HEK293 cells (capsaicin-induced, Fluo-3/AM). Type of test: cell-based. Conditions: 1 μM capsaicin-induced intracellular calcium influx, read-out: Inhibitory Activity IC50. The procedure: Experiments for calcium influx were performed to measure the activity of the compounds as antagonists.
The cell strain hVR1-HEK293 is the human embryonic kidney (HEK) 293 Tet-on cell transfected with a human vanilloid-1 gene (pTRE2hyg-hVR1, 7.8 kb), which is capable of controlling the expression of VR1 according to the administration of deoxycycline, a tetracycline derivative analog. In a medium supplemented with deoxycycline two days before calcium influx experiments, the cell strain was cultured to induce the expression of VR1. After being grown to a confluency of about 80% in T75 flasks, hVR1-HEK293 was detached from the flask using trypsin. Cells harvested by centrifugation were suspended in a medium supplemented with 1 μg/mL of deoxycycline and diluted to a density of 2-4×10^5 cells/mL, after which a 100 μL aliquot of the cell suspension was added to each well of 96 well black plates. Before the measurement of calcium influx, the cells were incubated for two days at 37° C. in a 5% CO2 incubator.
For use in calcium influx experiments, each compound was dissolved in dimethyl sulfoxide (DMSO).
To measure an intracellular calcium influx, cells were incubated at 37° C. for 90 min in a medium containing the calcium indicator Fluo-3/AM so as to allow the fluorescent dye to penetrate into the cells. Then, the cells were washed three times with D-PBS (Dulbecco's phosphate buffered saline) containing 10 mM HEPES to remove the fluorescent dye which remained outside. 193 μL aliquot of D-PBS was added to each well, followed by the addition of various concentrations of compounds thereto. In order to measure the antagonistic activity of the compounds, calcium influx was induced by treatment with 1 μM capsaicin. The inhibitory effect of each compound on 1 μM capsaicin-induced intracellular calcium influx according to compound concentration was measured using a fluorescent analyzer and the data thus obtained were analyzed on the basis of the Hill's equation.
For orientation: A change in cytosolic calcium serves as a functional read-out for many receptors and channels.

Among the data in US9199965B2, “Benzoimidazole derivatives and pharmaceutical composition comprising the same” (Daewoong Co., Ltd., priority 2005, dated 2015) are inhibition, inhibition in vivo and IC50 values, retold here.

One may read the inhibition as the change of the read-out against control, counted positive when it falls. Read a low inhibition as a response near the control. For orientation: IC50 means the concentration at which inhibition is half-maximal.

T1 sequence (O35433 whole entry): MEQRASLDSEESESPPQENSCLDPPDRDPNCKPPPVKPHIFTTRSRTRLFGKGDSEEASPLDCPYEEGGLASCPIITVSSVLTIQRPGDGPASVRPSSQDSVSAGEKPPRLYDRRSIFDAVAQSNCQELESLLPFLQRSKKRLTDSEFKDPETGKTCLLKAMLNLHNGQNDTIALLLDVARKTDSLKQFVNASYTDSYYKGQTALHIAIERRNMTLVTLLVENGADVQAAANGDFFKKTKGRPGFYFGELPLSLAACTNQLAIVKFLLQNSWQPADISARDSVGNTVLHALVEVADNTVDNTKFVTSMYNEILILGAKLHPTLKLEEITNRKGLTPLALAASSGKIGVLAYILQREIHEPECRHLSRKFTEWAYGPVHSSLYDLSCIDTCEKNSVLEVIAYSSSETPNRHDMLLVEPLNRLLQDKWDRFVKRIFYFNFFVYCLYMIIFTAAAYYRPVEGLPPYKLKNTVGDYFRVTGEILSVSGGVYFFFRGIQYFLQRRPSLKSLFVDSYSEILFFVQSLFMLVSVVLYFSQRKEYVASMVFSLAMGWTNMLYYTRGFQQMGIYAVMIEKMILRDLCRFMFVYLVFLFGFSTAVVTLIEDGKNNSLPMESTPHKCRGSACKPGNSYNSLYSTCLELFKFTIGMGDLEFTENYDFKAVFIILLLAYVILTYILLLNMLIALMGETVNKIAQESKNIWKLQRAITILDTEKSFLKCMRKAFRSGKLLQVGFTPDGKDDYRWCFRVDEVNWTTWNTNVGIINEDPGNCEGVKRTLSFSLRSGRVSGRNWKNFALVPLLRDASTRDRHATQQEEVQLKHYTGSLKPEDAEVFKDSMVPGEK
T2 sequence (Q8NER1 whole entry): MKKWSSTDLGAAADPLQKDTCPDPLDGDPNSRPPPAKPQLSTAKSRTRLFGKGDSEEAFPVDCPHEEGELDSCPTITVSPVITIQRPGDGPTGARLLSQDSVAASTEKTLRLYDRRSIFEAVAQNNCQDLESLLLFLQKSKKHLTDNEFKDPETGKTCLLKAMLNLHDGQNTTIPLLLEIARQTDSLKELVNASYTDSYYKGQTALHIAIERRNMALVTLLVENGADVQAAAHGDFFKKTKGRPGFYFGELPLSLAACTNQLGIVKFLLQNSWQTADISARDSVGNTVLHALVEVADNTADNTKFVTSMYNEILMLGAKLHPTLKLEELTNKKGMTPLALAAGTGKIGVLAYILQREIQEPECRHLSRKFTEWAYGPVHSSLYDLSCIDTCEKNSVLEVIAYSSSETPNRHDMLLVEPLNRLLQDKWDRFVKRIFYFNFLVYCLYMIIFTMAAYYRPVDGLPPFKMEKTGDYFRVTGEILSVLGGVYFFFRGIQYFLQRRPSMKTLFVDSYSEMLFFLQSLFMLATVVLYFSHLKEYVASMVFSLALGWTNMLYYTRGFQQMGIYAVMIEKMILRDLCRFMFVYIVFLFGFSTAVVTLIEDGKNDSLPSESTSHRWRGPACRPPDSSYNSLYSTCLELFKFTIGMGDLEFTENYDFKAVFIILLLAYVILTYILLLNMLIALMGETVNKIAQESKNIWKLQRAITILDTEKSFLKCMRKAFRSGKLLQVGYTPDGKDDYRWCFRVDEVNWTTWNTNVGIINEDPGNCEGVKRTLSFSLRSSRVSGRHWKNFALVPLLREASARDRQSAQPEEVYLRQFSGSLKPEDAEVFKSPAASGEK

Consider `CS(=O)(=O)Nc1ccc(-c2ccc(-c3nc4c(C(F)(F)F)cc(C(F)(F)F)cc4[nH]3)cc2)cc1F` [Compound 29, N-[4′-(4,6-bistrifluoromethyl-1H-benzoimidazole-2-yl)-3-fluorobiphenyl-4-yl]methanesulfonamide], for which, at rat TRPV1, the inhibition at 1 µM stood at 50%. Moreover, the inhibition in vivo at 20 mg/kg in test [1] was found to be 41%. Also, the IC50 at human vanilloid-1 (hVR1) was found to be 4 nM.

As to `CC(C)(C)c1ccc2nc(-c3ccc(-c4ncccc4Cl)cc3F)[nH]c2c1` [Compound 67, 6-tert-butyl-2-[4-(3-chloropyridin-2-yl)-2-fluorophenyl]-1H-benzoimidazole], at rat TRPV1, the inhibition at 1 µM was found to be 80%. Moreover, the inhibition in vivo at 20 mg/kg in test [1] turned out to be 23%. For the same compound, on human vanilloid-1 (hVR1), the IC50 was 122 nM.

For the compound `FC(F)(F)c1cccnc1-c1ccc(-c2nc3cc(Cl)c(Cl)cc3[nH]2)nc1` [Compound 163, 6′-(5,6-dichloro-1H-benzoimidazole-2-yl)-3-trifluoromethyl-[2,3′]bipyridine], in test [1], the inhibition in vivo at 20 mg/kg amounted to 41%. Also, the IC50 at human vanilloid-1 (hVR1) came out at 15 nM.

As to `FC(F)(F)c1cccnc1-c1ccc(-c2nc3ccc(Br)cc3[nH]2)nc1` [Compound 165, 6-bromo-2-(5-(3-(trifluoromethyl)pyridin-2-yl)pyridin-2-yl)-1H-benzoimidazole], the inhibition in vivo at 20 mg/kg in test [1] turned out to be 60%. The IC50 at human vanilloid-1 (hVR1) amounted to 28 nM.

Take `FC(F)(F)c1cccnc1-c1ccc(-c2nc3ncc(Br)cc3[nH]2)nc1` [Compound 167, 6′-(6-bromo-1H-imidazo[4,5-b]pyridine-2-yl)-3-trifluoromethyl[2,3′]bipyridine]: the inhibition in vivo at 20 mg/kg in test [1] was found to be 55%.

The compound `FC(F)(F)c1ccc2nc(-c3ccc(-c4ncccc4C(F)(F)F)cn3)[nH]c2c1` [Compound 158, 3-trifluoromethyl-6′-(6-trifluoromethyl-1H-benzoimidazole-2-yl)-[2,3′]bipyridine] displayed an inhibition at 1 µM against rat TRPV1 of 69%. Besides, the inhibition in vivo at 20 mg/kg in test [1] was 53%. For the same compound, the IC50 at human vanilloid-1 (hVR1) came to 14 nM.

`FC(F)(F)c1cc(Cl)c2nc(-c3ccc(-c4ncccc4C(F)(F)F)cc3)[nH]c2c1` [Compound 31, 4-chloro-6-trifluoromethyl-2-[4-(3-trifluoromethylpyridin-2-yl)phenyl]-1H-benzoimidazole] gave an inhibition at 1 µM at rat TRPV1 of 66%. Moreover, the inhibition in vivo at 20 mg/kg in test [1] amounted to 35%. Further, the IC50 on human vanilloid-1 (hVR1) turned out to be 8 nM.

Take `Clc1cc2nc(-c3ccc(-c4ncccc4Cl)cc3)[nH]c2cc1Cl` [Compound 12, 2-[4-(3-chloropyridin-2-yl)phenyl]-5,6-dichloro-1H-benzoimidazole]: the inhibition in vivo at 20 mg/kg in test [1] was found to be 35%. For the same compound, on human vanilloid-1 (hVR1), the IC50 turned out to be 70 nM.

With `FC(F)(F)c1cccnc1-c1ccc(-c2nc3ccc(Br)cc3[nH]2)cc1` [Compound 37, 6-bromo-2-(4-(3-(trifluoromethyl)pyridin-2-yl)phenyl)-1H-benzoimidazole], in test [1], the inhibition in vivo at 20 mg/kg is 50%. On human vanilloid-1 (hVR1), the IC50 came out at 75 nM.

Take `FC(F)(F)c1cc(C(F)(F)F)c2nc(-c3ccc(-c4ncccc4C(F)(F)F)cc3)[nH]c2c1` [Compound 33, 4,6-bistrifluoromethyl-2-[4-(3-trifluoromethylpyridin-2-yl)phenyl]-1H-benzoimidazole]: 1 µM produced 10% inhibition against rat TRPV1. Also, the inhibition in vivo at 20 mg/kg in test [1] was 31%. Besides, the IC50 on human vanilloid-1 (hVR1) stood at 10 nM.

`FC(F)(F)c1cc(C(F)(F)F)c2nc(-c3ccc(-c4ncccc4C(F)(F)F)cn3)[nH]c2c1` [Compound 162, 6′-(4,6-bistrifluoromethyl-1H-benzoimidazole-2-yl)-3-trifluoromethyl-[2,3′]bipyridine]: 1 µM produced 99% inhibition against rat TRPV1. Moreover, the inhibition in vivo at 20 mg/kg in test [1] came out at 28%. The 50% inhibitory concentration (IC50) at human vanilloid-1 (hVR1) was found to be 14 nM.

Take `CC(C)(C)c1ccc2nc(-c3ccc(-c4ncc(Cl)cc4Cl)cc3)[nH]c2c1` [Compound 25, 6-tert-butyl-2-[4-(3,5-dichloropyridin-2-yl)phenyl]-1H-benzoimidazole]: the inhibition in vivo at 20 mg/kg in test [1] came to 23%. The IC50 at human vanilloid-1 (hVR1) is 100 nM.

Consider `FC(F)(F)c1cc(Cl)c2nc(-c3ccc(-c4ncccc4Cl)cn3)[nH]c2c1` [Compound 138, 3-chloro-6′-(4-chloro-6-trifluoromethyl-1H-benzoimidazole-2-yl)-[2,3′]bipyridine], for which, at rat TRPV1, the inhibition at 1 µM stood at 73%. Besides, the inhibition in vivo at 20 mg/kg in test [1] stood at 22%. Besides, the concentration for half-maximal inhibition (IC50) at human vanilloid-1 (hVR1) was found to be 16 nM.

As for `FC(F)(F)c1cc(Cl)c2nc(-c3ccc(-c4ncccc4Cl)cc3)[nH]c2c1` [Compound 6, 4-chloro-2-[4-(3-chloropyridin-2-yl)phenyl]-6-trifluoromethyl-1H-benzoimidazole], the inhibition at 1 µM on rat TRPV1 worked out at 94%. The inhibition in vivo at 20 mg/kg in test [1] was determined as 33%. Further, the IC50 at human vanilloid-1 (hVR1) was found to be 11 nM.

Compound `FC(F)(F)c1cnc2nc(-c3ccc(-c4ncccc4Cl)c4ccccc34)[nH]c2c1` [Compound 107, 2-[4-(3-chloropyridin-2-yl)naphthalen-1-yl]-6-trifluoromethyl-1H-imidazo[4,5-b]pyridine] showed an inhibition at 1 µM against rat TRPV1 of 97%. Further, in test [1], the inhibition in vivo at 20 mg/kg worked out at 46%. For the same compound, on human vanilloid-1 (hVR1), the IC50 came out at 17 nM.

For the compound `FC(F)(F)c1cc(C(F)(F)F)c2nc(-c3ccc(-c4ncccc4Cl)cn3)[nH]c2c1` [Compound 139, 6′-(4,6-bistrifluoromethyl-1H-benzoimidazole-2-yl)-3-chloro-[2,3′]bipyridine], 1 µM produced 89% inhibition at rat TRPV1. For the same compound, the inhibition in vivo at 20 mg/kg in test [1] stood at 26%. Also, the IC50 at human vanilloid-1 (hVR1) worked out at 38 nM.

`CC(C)(C)c1ccc2nc(-c3ccc(-c4ncccc4Cl)cc3)[nH]c2c1` [Compound 3, 6-tert-butyl-2-[4-(3-chloropyridin-2-yl)phenyl]-1H-benzoimidazole] returned an inhibition at 1 µM on rat TRPV1 of 100%. Besides, the inhibition in vivo at 20 mg/kg in test [1] was found to be 58%. Further, the IC50 on human vanilloid-1 (hVR1) was 61 nM.

Regarding `FC(F)(F)c1cc(Br)c2nc(-c3ccc(-c4ncccc4C(F)(F)F)cn3)[nH]c2c1` [Compound 164, 4-bromo-6-(trifluoromethyl)-2-(5-(3-(trifluoromethyl)pyridin-2-yl)pyridin-2-yl)-1H-benzoimidazole], the inhibition in vivo at 20 mg/kg in test [1] worked out at 53%. Moreover, the IC50 on human vanilloid-1 (hVR1) turned out to be 9 nM.

Compound `FC(F)(F)c1ccc2nc(-c3ccc(-c4ncccc4Cl)cc3)[nH]c2c1` [Compound 1, 2-[4-(3-Chloropyridin-2-yl)-phenyl]-6-trifluoromethyl-1H-benzoimidazole] registered an inhibition at 1 µM against rat TRPV1 of 100%. Also, in test [1], the inhibition in vivo at 20 mg/kg turned out to be 33%. Moreover, the IC50 at human vanilloid-1 (hVR1) worked out at 130 nM.

On to `FC(F)(F)c1cc(Br)c2nc(-c3ccc(-c4ncccc4C(F)(F)F)cc3)[nH]c2c1` [Compound 36, 4-bromo-6-(trifluoromethyl)-2-(4-(3-(trifluoromethyl)pyridin-2-yl)phenyl)-1H-benzoimidazole], for which, in test [1], the inhibition in vivo at 20 mg/kg was 70%. The IC50 at human vanilloid-1 (hVR1) amounted to 94 nM.
